Results published in patent US20260232767A1, “INTERLEUKIN-23 RECEPTOR ANTAGONIST PEPTIDES FOR USE IN THE TREATMENT OF PSORIASIS” (Janssen Pharmaceutica NV, priority 2023, published 2026).

System: subjects with moderate-to-severe plaque psoriasis
Test: IGA score, Example 2
Format: in vivo, human
Excerpt: Described below is a multicenter, long-term extension (LTE), double-blind, dose-ranging, parallel group interventional study in participants from Example 1 to evaluate the long-term efficacy and safety of the hydrochloride salt of the compound of Formula (I) for the treatment of moderate-to-severe plaque psoriasis. Patients from Example 1 continued to receive the same dose of the compound of Formula (I) for an additional 36-week treatment period with a 4-week safety follow up period after the last administration of the compound of Formula (I). Patients randomized to placebo in Example 1 received the compound of Formula (I) at a dose of 100 mg QD starting at Week 16 of Example 1 (FIG. 21).
Secondary endpoints included additional change from baseline of Example 1 in PASI, IGA, and PSSD at Week 52, including the proportions of subjects that achieved PAST 90, PAST 100, an IGA score of cleared (0) or minimal (1), PSSD symptoms score=0, and PSSD signs score=0.

[1] = Week 20, Placebo → 100 mg QD, N=35
[2] = Week 24, Placebo → 100 mg QD, N=35
[3] = Week 28, Placebo → 100 mg QD, N=35
[4] = Week 32, Placebo → 100 mg QD, N=35
[5] = Week 40, Placebo → 100 mg QD, N=35
[6] = Week 52, Placebo → 100 mg QD, N=35

What does the source list for CC(=O)NCCCC[C@@H]1NC(=O)[C@H](Cc2c[nH]c3c(C)cccc23)NC(=O)[C@H]([C@@H](C)O)NC(=O)[C@H](CC(N)=O)NC(=O)[C@@H](NC(C)=O)C(C)(C)SSC(C)(C)[C@@H](C(=O)N[C@@H](Cc2ccc(OCCN)cc2)C(=O)N[C@@H](Cc2ccc3ccccc3c2)C(=O)NC2(C(=O)N[C@@H](CCC(=O)O)C(=O)N[C@@H](CC(N)=O)C(=O)N[C@@H](Cc3cccnc3)C(=O)N(C)CC(N)=O)CCOCC2)NC1=O [IL-23 receptor antagonist peptide, Ac-[Pen]*-N-T-[W(7-Me)]-[Lys(Ac)]-[Pen]*-Phe[4-(2-aminoethoxy)]-[2-Nal]-[THP]-E-N-[3-Pal]-Sarc-NH2 (*[Pen]-[Pen]* formdisulfidebond)]?
IGA Score ≤2 (‘Mild’or better), subjects (%) (Week 20, 100 mg QD, N=43): (72.1%); IGA Score = 0 (‘Cleared’) or 1 (‘Minimal’), subjects (%) [1]: (28.6%); IGA Score = 0 (‘Cleared’), subjects (%) [1]: (5.7%); IGA Score ≤2 (‘Mild’or better), subjects (%) [1]: (71.4%); IGA Score = 0 (‘Cleared’) or 1 (‘Minimal’), subjects (%) (Week 24, 25 mg BID, N=41): (39.0%); IGA Score = 0 (‘Cleared’), subjects (%) (Week 24, 25 mg BID, N=41): (19.5%); IGA Score ≤2 (‘Mild’or better), subjects (%) (Week 24, 25 mg BID, N=41): (75.6%); IGA Score = 0 (‘Cleared’) or 1 (‘Minimal’), subjects (%) (Week 24, 25 mg QD, N=43): (37.2%); IGA Score = 0 (‘Cleared’), subjects (%) (Week 24, 25 mg QD, N=43): (16.3%); IGA Score ≤2 (‘Mild’or better), subjects (%) (Week 24, 25 mg QD, N=43): (67.4%); IGA Score = 0 (‘Cleared’) or 1 (‘Minimal’), subjects (%) (Week 24, 50 mg QD, N=43): (60.5%); IGA Score = 0 (‘Cleared’), subjects (%) (Week 24, 50 mg QD, N=43): (32.6%); IGA Score ≤2 (‘Mild’or better), subjects (%) (Week 24, 50 mg QD, N=43): (81.4%); IGA Score = 0 (‘Cleared’) or 1 (‘Minimal’), subjects (%) (Week 24, 100 mg BID, N=42): (73.8%); IGA Score = 0 (‘Cleared’), subjects (%) (Week 24, 100 mg BID, N=42): (38.1%); IGA Score ≤2 (‘Mild’or better), subjects (%) (Week 24, 100 mg BID, N=42): (78.6%); IGA Score = 0 (‘Cleared’) or 1 (‘Minimal’), subjects (%) (Week 24, 100 mg QD, N=43): (65.1%); IGA Score = 0 (‘Cleared’), subjects (%) (Week 24, 100 mg QD, N=43): (23.3%); IGA Score ≤2 (‘Mild’or better), subjects (%) (Week 24, 100 mg QD, N=43): (76.7%); IGA Score = 0 (‘Cleared’) or 1 (‘Minimal’), subjects (%) [2]: (54.3%); IGA Score = 0 (‘Cleared’), subjects (%) [2]: (14.3%); IGA Score ≤2 (‘Mild’or better), subjects (%) [2]: (85.7%); IGA Score = 0 (‘Cleared’) or 1 (‘Minimal’), subjects (%) (Week 28, 25 mg BID, N=41): (41.5%); IGA Score = 0 (‘Cleared’), subjects (%) (Week 28, 25 mg BID, N=41): (19.5%); IGA Score ≤2 (‘Mild’or better), subjects (%) (Week 28, 25 mg BID, N=41): (73.2%); IGA Score = 0 (‘Cleared’) or 1 (‘Minimal’), subjects (%) (Week 28, 25 mg QD, N=43): (37.2%); IGA Score = 0 (‘Cleared’), subjects (%) (Week 28, 25 mg QD, N=43): (18.6%); IGA Score ≤2 (‘Mild’or better), subjects (%) (Week 28, 25 mg QD, N=43): (65.1%); IGA Score = 0 (‘Cleared’) or 1 (‘Minimal’), subjects (%) (Week 28, 50 mg QD, N=43): (62.8%); IGA Score = 0 (‘Cleared’), subjects (%) (Week 28, 50 mg QD, N=43): (16.3%); IGA Score ≤2 (‘Mild’or better), subjects (%) (Week 28, 50 mg QD, N=43): (76.7%); IGA Score = 0 (‘Cleared’) or 1 (‘Minimal’), subjects (%) (Week 28, 100 mg BID, N=42): (64.3%); IGA Score = 0 (‘Cleared’), subjects (%) (Week 28, 100 mg BID, N=42): (42.9%); IGA Score ≤2 (‘Mild’or better), subjects (%) (Week 28, 100 mg BID, N=42): (78.6%); IGA Score = 0 (‘Cleared’) or 1 (‘Minimal’), subjects (%) (Week 28, 100 mg QD, N=43): (62.8%); IGA Score = 0 (‘Cleared’), subjects (%) (Week 28, 100 mg QD, N=43): (25.6%); IGA Score ≤2 (‘Mild’or better), subjects (%) (Week 28, 100 mg QD, N=43): (74.4%); IGA Score = 0 (‘Cleared’) or 1 (‘Minimal’), subjects (%) [3]: (60.0%); IGA Score = 0 (‘Cleared’), subjects (%) [3]: (17.1%); IGA Score ≤2 (‘Mild’or better), subjects (%) [3]: (85.7%); IGA Score = 0 (‘Cleared’) or 1 (‘Minimal’), subjects (%) (Week 32, 25 mg BID, N=41): (46.3%); IGA Score = 0 (‘Cleared’), subjects (%) (Week 32, 25 mg BID, N=41): (22.0%); IGA Score ≤2 (‘Mild’or better), subjects (%) (Week 32, 25 mg BID, N=41): (73.2%); IGA Score = 0 (‘Cleared’) or 1 (‘Minimal’), subjects (%) (Week 32, 25 mg QD, N=43): (39.5%); IGA Score = 0 (‘Cleared’), subjects (%) (Week 32, 25 mg QD, N=43): (18.6%); IGA Score ≤2 (‘Mild’or better), subjects (%) (Week 32, 25 mg QD, N=43): (60.5%); IGA Score = 0 (‘Cleared’) or 1 (‘Minimal’), subjects (%) (Week 32, 50 mg QD, N=43): (58.1%); IGA Score = 0 (‘Cleared’), subjects (%) (Week 32, 50 mg QD, N=43): (30.2%); IGA Score ≤2 (‘Mild’or better), subjects (%) (Week 32, 50 mg QD, N=43): (79.1%); IGA Score = 0 (‘Cleared’) or 1 (‘Minimal’), subjects (%) (Week 32, 100 mg BID, N=42): (66.7%); IGA Score = 0 (‘Cleared’), subjects (%) (Week 32, 100 mg BID, N=42): (40.5%); IGA Score ≤2 (‘Mild’or better), subjects (%) (Week 32, 100 mg BID, N=42): (78.6%); IGA Score = 0 (‘Cleared’) or 1 (‘Minimal’), subjects (%) (Week 32, 100 mg QD, N=43): (67.4%); IGA Score = 0 (‘Cleared’), subjects (%) (Week 32, 100 mg QD, N=43): (25.6%); IGA Score ≤2 (‘Mild’or better), subjects (%) (Week 32, 100 mg QD, N=43): (76.7%); IGA Score = 0 (‘Cleared’) or 1 (‘Minimal’), subjects (%) [4]: (65.7%); IGA Score = 0 (‘Cleared’), subjects (%) [4]: (20.0%); IGA Score ≤2 (‘Mild’or better), subjects (%) [4]: (80.0%); IGA Score = 0 (‘Cleared’) or 1 (‘Minimal’), subjects (%) (Week 40, 25 mg BID, N=41): (31.7%); IGA Score = 0 (‘Cleared’), subjects (%) (Week 40, 25 mg BID, N=41): (17.1%); IGA Score ≤2 (‘Mild’or better), subjects (%) (Week 40, 25 mg BID, N=41): (68.3%); IGA Score = 0 (‘Cleared’) or 1 (‘Minimal’), subjects (%) (Week 40, 25 mg QD, N=43): (41.9%); IGA Score = 0 (‘Cleared’), subjects (%) (Week 40, 25 mg QD, N=43): (11.6%); IGA Score ≤2 (‘Mild’or better), subjects (%) (Week 40, 25 mg QD, N=43): (67.4%); IGA Score = 0 (‘Cleared’) or 1 (‘Minimal’), subjects (%) (Week 40, 50 mg QD, N=43): (58.1%); IGA Score = 0 (‘Cleared’), subjects (%) (Week 40, 50 mg QD, N=43): (23.3%); IGA Score ≤2 (‘Mild’or better), subjects (%) (Week 40, 50 mg QD, N=43): (79.1%); IGA Score = 0 (‘Cleared’) or 1 (‘Minimal’), subjects (%) (Week 40, 100 mg BID, N=42): (66.7%); IGA Score = 0 (‘Cleared’), subjects (%) (Week 40, 100 mg BID, N=42): (40.5%); IGA Score ≤2 (‘Mild’or better), subjects (%) (Week 40, 100 mg BID, N=42): (78.6%); IGA Score = 0 (‘Cleared’) or 1 (‘Minimal’), subjects (%) (Week 40, 100 mg QD, N=43): (65.1%); IGA Score = 0 (‘Cleared’), subjects (%) (Week 40, 100 mg QD, N=43): (27.9%); IGA Score ≤2 (‘Mild’or better), subjects (%) (Week 40, 100 mg QD, N=43): (69.8%); IGA Score = 0 (‘Cleared’) or 1 (‘Minimal’), subjects (%) [5]: (57.1%); IGA Score = 0 (‘Cleared’), subjects (%) [5]: (31.4%); IGA Score ≤2 (‘Mild’or better), subjects (%) [5]: (74.3%); IGA Score = 0 (‘Cleared’) or 1 (‘Minimal’), subjects (%) (Week 52, 25 mg BID, N=41): (46.3%); IGA Score = 0 (‘Cleared’), subjects (%) (Week 52, 25 mg BID, N=41): (19.5%); IGA Score ≤2 (‘Mild’or better), subjects (%) (Week 52, 25 mg BID, N=41): (63.4%); IGA Score = 0 (‘Cleared’) or 1 (‘Minimal’), subjects (%) (Week 52, 25 mg QD, N=43): (37.2%); IGA Score = 0 (‘Cleared’), subjects (%) (Week 52, 25 mg QD, N=43): (14.0%); IGA Score ≤2 (‘Mild’or better), subjects (%) (Week 52, 25 mg QD, N=43): (55.8%); IGA Score = 0 (‘Cleared’) or 1 (‘Minimal’), subjects (%) (Week 52, 50 mg QD, N=43): (60.5%); IGA Score = 0 (‘Cleared’), subjects (%) (Week 52, 50 mg QD, N=43): (23.3%); IGA Score ≤2 (‘Mild’or better), subjects (%) (Week 52, 50 mg QD, N=43): (79.1%); IGA Score = 0 (‘Cleared’) or 1 (‘Minimal’), subjects (%) (Week 52, 100 mg BID, N=42): (73.8%); IGA Score = 0 (‘Cleared’), subjects (%) (Week 52, 100 mg BID, N=42): (42.9%); IGA Score ≤2 (‘Mild’or better), subjects (%) (Week 52, 100 mg BID, N=42): (76.2%); IGA Score = 0 (‘Cleared’) or 1 (‘Minimal’), subjects (%) (Week 52, 100 mg QD, N=43): (60.5%); IGA Score = 0 (‘Cleared’), subjects (%) (Week 52, 100 mg QD, N=43): (30.2%); IGA Score ≤2 (‘Mild’or better), subjects (%) (Week 52, 100 mg QD, N=43): (67.4%); IGA Score = 0 (‘Cleared’) or 1 (‘Minimal’), subjects (%) [6]: (65.7%); IGA Score = 0 (‘Cleared’), subjects (%) [6]: (31.4%); IGA Score ≤2 (‘Mild’or better), subjects (%) [6]: (77.1%)
